In ChEMBL document CHEMBL4622942, “Design, synthesis and biological evaluation of potent EGFR kinase inhibitors against 19D/T790M/C797S mutation” (Bioorg Med Chem Lett, 2020):
Values belong to the molecule of their own block, whether it stands above or below them. The source made the active and inactive calls. The calls are words filed in the database; no cut-off is given here.

Tests used:
[1] = molecular target: Epidermal growth factor receptor (Homo sapiens, UniProt P00533, L858R/T790M); assay: Inhibition of EGFR L858R/T790M mutant (unknown origin) by ELISA
Sequence of Epidermal growth factor receptor (Homo sapiens, UniProt P00533, L858R/T790M) (P00533 25-1210 T790M/L858R limits assumed): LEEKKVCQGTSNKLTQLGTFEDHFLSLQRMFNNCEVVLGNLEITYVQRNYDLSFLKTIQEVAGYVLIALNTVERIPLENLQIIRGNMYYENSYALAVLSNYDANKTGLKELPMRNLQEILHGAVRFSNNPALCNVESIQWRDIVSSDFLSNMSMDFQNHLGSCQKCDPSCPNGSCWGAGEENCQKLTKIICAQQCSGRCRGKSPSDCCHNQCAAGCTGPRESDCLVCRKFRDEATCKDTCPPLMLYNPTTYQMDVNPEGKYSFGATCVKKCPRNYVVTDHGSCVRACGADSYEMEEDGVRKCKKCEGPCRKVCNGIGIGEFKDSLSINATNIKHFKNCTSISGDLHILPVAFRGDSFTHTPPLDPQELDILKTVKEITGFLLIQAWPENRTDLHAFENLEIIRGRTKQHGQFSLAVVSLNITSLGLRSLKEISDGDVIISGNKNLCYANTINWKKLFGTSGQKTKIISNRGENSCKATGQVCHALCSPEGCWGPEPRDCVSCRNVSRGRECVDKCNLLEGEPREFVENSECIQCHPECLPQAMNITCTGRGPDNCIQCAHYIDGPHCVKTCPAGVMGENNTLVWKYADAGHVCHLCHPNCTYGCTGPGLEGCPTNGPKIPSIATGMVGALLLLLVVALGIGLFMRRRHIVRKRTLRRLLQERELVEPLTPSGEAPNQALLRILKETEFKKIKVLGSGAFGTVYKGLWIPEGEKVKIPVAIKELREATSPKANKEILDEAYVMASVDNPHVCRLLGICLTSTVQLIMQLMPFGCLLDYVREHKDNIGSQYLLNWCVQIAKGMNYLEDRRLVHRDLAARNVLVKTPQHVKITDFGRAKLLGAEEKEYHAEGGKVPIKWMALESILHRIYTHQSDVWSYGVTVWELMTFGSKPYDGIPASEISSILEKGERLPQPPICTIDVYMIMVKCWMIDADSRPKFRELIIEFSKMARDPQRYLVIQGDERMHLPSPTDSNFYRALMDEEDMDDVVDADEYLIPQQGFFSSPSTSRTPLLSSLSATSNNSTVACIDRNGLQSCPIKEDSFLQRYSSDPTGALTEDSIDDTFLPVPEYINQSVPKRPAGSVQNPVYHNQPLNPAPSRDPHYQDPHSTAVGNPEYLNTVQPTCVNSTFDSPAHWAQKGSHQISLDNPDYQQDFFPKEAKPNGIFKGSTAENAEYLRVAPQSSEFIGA

[2] = molecular target: Epidermal growth factor receptor (Homo sapiens, UniProt P00533); assay: Inhibition of wild type EGFR (unknown origin) by ELISA
[3] = molecular target: Epidermal growth factor receptor (Homo sapiens, UniProt P00533, C797S/L858R/T790M); assay: Inhibition of EGFR L858R/T790M/C797S mutant (unknown origin) by ELISA
Sequence of Epidermal growth factor receptor (Homo sapiens, UniProt P00533, C797S/L858R/T790M) (P00533 25-1210 T790M/C797S/L858R limits assumed): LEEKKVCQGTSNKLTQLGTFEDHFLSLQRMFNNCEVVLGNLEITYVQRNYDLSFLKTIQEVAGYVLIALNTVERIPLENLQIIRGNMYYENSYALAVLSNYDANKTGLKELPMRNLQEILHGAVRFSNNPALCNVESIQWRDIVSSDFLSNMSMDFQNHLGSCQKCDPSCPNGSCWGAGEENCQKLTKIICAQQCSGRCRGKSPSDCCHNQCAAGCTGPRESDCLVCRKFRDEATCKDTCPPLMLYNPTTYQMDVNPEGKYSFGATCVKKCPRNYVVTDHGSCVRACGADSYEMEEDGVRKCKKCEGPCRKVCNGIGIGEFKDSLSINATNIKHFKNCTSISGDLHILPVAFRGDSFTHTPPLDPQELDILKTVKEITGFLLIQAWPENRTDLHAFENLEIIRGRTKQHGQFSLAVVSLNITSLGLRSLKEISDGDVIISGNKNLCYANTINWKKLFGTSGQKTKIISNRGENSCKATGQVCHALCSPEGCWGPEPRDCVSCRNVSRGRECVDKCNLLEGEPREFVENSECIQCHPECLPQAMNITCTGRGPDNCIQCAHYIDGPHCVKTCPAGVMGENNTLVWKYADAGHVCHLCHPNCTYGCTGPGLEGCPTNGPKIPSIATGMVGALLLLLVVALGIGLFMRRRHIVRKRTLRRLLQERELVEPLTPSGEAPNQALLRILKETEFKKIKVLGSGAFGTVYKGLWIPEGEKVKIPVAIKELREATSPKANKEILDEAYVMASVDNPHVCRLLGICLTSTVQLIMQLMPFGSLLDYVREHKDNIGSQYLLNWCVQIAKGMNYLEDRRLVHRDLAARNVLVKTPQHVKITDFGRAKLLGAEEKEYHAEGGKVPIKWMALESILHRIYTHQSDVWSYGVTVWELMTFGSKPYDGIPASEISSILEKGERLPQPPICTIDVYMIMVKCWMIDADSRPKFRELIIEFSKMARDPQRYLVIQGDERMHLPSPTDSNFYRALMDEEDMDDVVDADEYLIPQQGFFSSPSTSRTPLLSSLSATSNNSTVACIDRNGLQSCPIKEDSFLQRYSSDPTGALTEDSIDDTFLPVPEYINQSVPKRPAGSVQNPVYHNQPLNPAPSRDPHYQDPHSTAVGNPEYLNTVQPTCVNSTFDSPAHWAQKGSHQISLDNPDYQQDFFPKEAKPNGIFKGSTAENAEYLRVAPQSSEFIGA

[4] = molecular target: Epidermal growth factor receptor (Homo sapiens, UniProt P00533, C797S/EX19DEL/T790M); assay: Inhibition of EGFR 19D/T790M/C797S mutant (unknown origin) by ELISA
Sequence of Epidermal growth factor receptor (Homo sapiens, UniProt P00533, C797S/EX19DEL/T790M) (P00533 whole entry, looked up, stated change not applied): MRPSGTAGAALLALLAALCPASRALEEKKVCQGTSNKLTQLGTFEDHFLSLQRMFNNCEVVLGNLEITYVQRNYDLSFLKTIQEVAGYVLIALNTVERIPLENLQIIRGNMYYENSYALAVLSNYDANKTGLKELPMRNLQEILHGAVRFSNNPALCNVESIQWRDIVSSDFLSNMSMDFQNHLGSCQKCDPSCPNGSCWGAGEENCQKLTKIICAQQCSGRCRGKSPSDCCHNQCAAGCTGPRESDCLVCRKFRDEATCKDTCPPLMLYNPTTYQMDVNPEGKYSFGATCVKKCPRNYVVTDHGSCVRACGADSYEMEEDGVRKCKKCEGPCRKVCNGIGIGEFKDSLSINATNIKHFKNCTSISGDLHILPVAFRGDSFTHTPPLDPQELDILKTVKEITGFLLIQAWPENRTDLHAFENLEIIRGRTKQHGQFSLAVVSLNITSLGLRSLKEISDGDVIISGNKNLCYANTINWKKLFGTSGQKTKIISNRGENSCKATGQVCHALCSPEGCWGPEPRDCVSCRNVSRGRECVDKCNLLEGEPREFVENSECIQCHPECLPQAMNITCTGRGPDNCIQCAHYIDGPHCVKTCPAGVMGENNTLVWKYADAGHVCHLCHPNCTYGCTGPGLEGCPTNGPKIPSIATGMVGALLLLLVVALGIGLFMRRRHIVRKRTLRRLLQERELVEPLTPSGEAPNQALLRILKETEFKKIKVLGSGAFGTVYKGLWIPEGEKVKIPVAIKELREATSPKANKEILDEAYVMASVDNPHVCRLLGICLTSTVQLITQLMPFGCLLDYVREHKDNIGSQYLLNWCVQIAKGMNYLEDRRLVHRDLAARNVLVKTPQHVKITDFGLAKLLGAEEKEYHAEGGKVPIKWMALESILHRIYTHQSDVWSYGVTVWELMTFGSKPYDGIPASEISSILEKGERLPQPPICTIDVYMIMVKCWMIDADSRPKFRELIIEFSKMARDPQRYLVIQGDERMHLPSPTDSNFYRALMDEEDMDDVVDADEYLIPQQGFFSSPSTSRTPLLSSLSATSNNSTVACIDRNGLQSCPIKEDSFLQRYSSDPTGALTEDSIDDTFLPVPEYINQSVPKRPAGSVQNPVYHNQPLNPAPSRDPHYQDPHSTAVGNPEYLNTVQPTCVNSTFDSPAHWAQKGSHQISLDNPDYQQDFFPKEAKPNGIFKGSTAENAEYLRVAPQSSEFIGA

BaF3 [5] = assay: Cell cycle arrest in mouse BAF3 cells harboring EGFR 19D/T790M/C797S mutant assessed as accumulation at G1 phase at 20 uM measured after 24 hrs by flow cytometry analysis (reference value: 39.62 %); assay type: functional
[6] = system: Epidermal growth factor receptor (Homo sapiens), P00533 [UNDEFINED MUTATION]; assay: Inhibition of EGFR 19D/T790M/C797S mutant (unknown origin) expressed in mouse BAF3 cells assessed as reduction in EGF-stimulated ERK phosphorylation pretreated for 3 hrs followed by EGF stimulation by Western blot analysis; assay type: cell-based
Sequence of Epidermal growth factor receptor (Homo sapiens), P00533 [UNDEFINED MUTATION] (P00533 whole entry, looked up, stated change not applied): as above

BaF3 [7] = assay: Cell cycle arrest in mouse BAF3 cells harboring EGFR 19D/T790M/C797S mutant assessed as accumulation at S phase at 20 uM measured after 24 hrs by flow cytometry analysis (reference value: 52.43 %); assay type: functional
BaF3 [8] = assay: Cell cycle arrest in mouse BAF3 cells harboring EGFR 19D/T790M/C797S mutant assessed as accumulation at G2 phase at 20 uM measured after 24 hrs by flow cytometry analysis (reference value: 7.94 %); assay type: functional
BaF3 [9] = assay: Cell cycle arrest in mouse BAF3 cells harboring EGFR 19D/T790M/C797S mutant assessed as accumulation at G1 phase measured after 24 hrs by flow cytometry analysis; assay type: functional, cell-based
BaF3 [10] = assay: Antiproliferative activity against mouse BAF3 cells harboring EGFR 19D/T790M/C797S mutant assessed as reduction in cell viability by CCK8 assay; assay type: functional, cell-based
BaF3 [11] = assay: Induction of apoptosis in mouse BAF3 cells harboring EGFR 19D/T790M/C797S mutant assessed as late apoptotic cells at 10 uM measured after 24 hrs by annexinV-FITC/propidium iodide staining based flow cytometry analysis (reference value: 2.03 %); assay type: functional
BaF3 [12] = assay: Cell cycle arrest in mouse BAF3 cells harboring EGFR 19D/T790M/C797S mutant assessed as accumulation at S phase at 10 uM measured after 24 hrs by flow cytometry analysis (reference value: 52.43 %); assay type: functional
BaF3 [13] = assay: Induction of apoptosis in mouse BAF3 cells harboring EGFR 19D/T790M/C797S mutant assessed as late apoptotic cells at 50 uM measured after 24 hrs by annexinV-FITC/propidium iodide staining based flow cytometry analysis (reference value: 2.03 %); assay type: functional
BaF3 [14] = assay: Cell cycle arrest in mouse BAF3 cells harboring EGFR 19D/T790M/C797S mutant assessed as accumulation at G2 phase at 10 uM measured after 24 hrs by flow cytometry analysis (reference value: 7.94 %); assay type: functional
BaF3 [15] = assay: Induction of apoptosis in mouse BAF3 cells harboring EGFR 19D/T790M/C797S mutant measured after 24 hrs by annexinV-FITC/propidium iodide staining based flow cytometry analysis; assay type: functional, cell-based
[16] = Selectivity index, ratio of IC50 for human A431 cells overexpressing EGFR assessed as reduction in cell viability by CCK8 assay to IC50 for human NCI-H1975 cells harboring EGFR […]/T790M assessed as reduction in cell viability by CCK8 assay; assay type: functional
A-431 = assay: Antiproliferative activity against human A431 cells overexpressing EGFR assessed as reduction in cell viability by CCK8 assay; assay type: functional, cell-based
BaF3 [17] = assay: Cell cycle arrest in mouse BAF3 cells harboring EGFR 19D/T790M/C797S mutant assessed as accumulation at G1 phase at 1 uM measured after 24 hrs by flow cytometry analysis (reference value: 39.62 %); assay type: functional
BaF3 [18] = assay: Induction of apoptosis in mouse BAF3 cells harboring EGFR 19D/T790M/C797S mutant assessed as early apoptotic cells at 1 uM measured after 24 hrs by annexinV-FITC/propidium iodide staining based flow cytometry analysis (reference value: 15.09 %); assay type: functional
BaF3 [19] = assay: Cell cycle arrest in mouse BAF3 cells harboring EGFR 19D/T790M/C797S mutant assessed as accumulation at G2 phase at 1 uM measured after 24 hrs by flow cytometry analysis (reference value: 7.94 %); assay type: functional
NCI-H1975 = assay: Antiproliferative activity against human NCI-H1975 cells harboring EGFR L858R/T790M mutant assessed as reduction in cell viability by CCK8 assay; assay type: functional, cell-based
[20] = system: Epidermal growth factor receptor (Homo sapiens), P00533 [UNDEFINED MUTATION]; assay: Inhibition of EGFR 19D/T790M/C797S mutant (unknown origin) expressed in mouse BAF3 cells assessed as reduction in EGF-stimulated Akt phosphorylation at 5 to 100 uM pretreated for 3 hrs followed by EGF stimulation by Western blot analysis; assay type: cell-based
BaF3 [21] = assay: Induction of apoptosis in mouse BAF3 cells harboring EGFR 19D/T790M/C797S mutant assessed as live cells at 1 uM measured after 24 hrs by annexinV-FITC/propidium iodide staining based flow cytometry analysis (reference value: 82.74 %); assay type: functional
BaF3 [22] = assay: Cell cycle arrest in mouse BAF3 cells harboring EGFR 19D/T790M/C797S mutant assessed as accumulation at G1 phase at 10 uM measured after 24 hrs by flow cytometry analysis (reference value: 39.62 %); assay type: functional
[23] = Selectivity index, ratio of IC50 for human A431 cells overexpressing EGFR assessed as reduction in cell viability by CCK8 assay to IC50 for mouse BAF3 cells harboring EGFR 19D/T790M/C797S assessed as reduction in cell viability by CCK8 assay; assay type: functional
BaF3 [24] = assay: Induction of apoptosis in mouse BAF3 cells harboring EGFR 19D/T790M/C797S mutant assessed as necrotic cells at 10 uM measured after 24 hrs by annexinV-FITC/propidium iodide staining based flow cytometry analysis (reference value: 0.13 %); assay type: functional
BaF3 [25] = assay: Induction of apoptosis in mouse BAF3 cells harboring EGFR 19D/T790M/C797S mutant assessed as necrotic cells at 50 uM measured after 24 hrs by annexinV-FITC/propidium iodide staining based flow cytometry analysis (reference value: 0.13 %); assay type: functional
BaF3 [26] = assay: Induction of apoptosis in mouse BAF3 cells harboring EGFR 19D/T790M/C797S mutant assessed as early apoptotic cells at 50 uM measured after 24 hrs by annexinV-FITC/propidium iodide staining based flow cytometry analysis (reference value: 15.09 %); assay type: functional
[27] = system: Epidermal growth factor receptor (Homo sapiens), P00533 [UNDEFINED MUTATION]; assay: Inhibition of EGFR 19D/T790M/C797S mutant (unknown origin) expressed in mouse BAF3 cells assessed as reduction in EGF-stimulated EGFR phosphorylation pretreated for 3 hrs followed by EGF stimulation by Western blot analysis; assay type: cell-based
BaF3 [28] = assay: Induction of apoptosis in mouse BAF3 cells harboring EGFR 19D/T790M/C797S mutant assessed as live cells at 10 uM measured after 24 hrs by annexinV-FITC/propidium iodide staining based flow cytometry analysis (reference value: 82.74 %); assay type: functional
BaF3 [29] = assay: Induction of apoptosis in mouse BAF3 cells harboring EGFR 19D/T790M/C797S mutant assessed as necrotic cells at 1 uM measured after 24 hrs by annexinV-FITC/propidium iodide staining based flow cytometry analysis (reference value: 0.13 %); assay type: functional
BaF3 [30] = assay: Induction of apoptosis in mouse BAF3 cells harboring EGFR 19D/T790M/C797S mutant assessed as early apoptotic cells at 10 uM measured after 24 hrs by annexinV-FITC/propidium iodide staining based flow cytometry analysis (reference value: 15.09 %); assay type: functional
BaF3 [31] = assay: Induction of apoptosis in mouse BAF3 cells harboring EGFR 19D/T790M/C797S mutant assessed as late apoptotic cells at 1 uM measured after 24 hrs by annexinV-FITC/propidium iodide staining based flow cytometry analysis (reference value: 2.03 %); assay type: functional
BaF3 [32] = assay: Cell cycle arrest in mouse BAF3 cells harboring EGFR 19D/T790M/C797S mutant assessed as accumulation at S phase at 1 uM measured after 24 hrs by flow cytometry analysis (reference value: 52.43 %); assay type: functional
BaF3 [33] = assay: Induction of apoptosis in mouse BAF3 cells harboring EGFR 19D/T790M/C797S mutant assessed as live cells at 50 uM measured after 24 hrs by annexinV-FITC/propidium iodide staining based flow cytometry analysis (reference value: 82.74 %); assay type: functional

SMILES: CCC(=O)Nc1cc(Nc2nccc(-c3cn(CCO)c4ccccc34)n2)c(OC)cc1F
- IC50 [1]: 170 nM
- IC50 [2]: > 1000 nM
- IC50 [3]: > 1000 nM
- IC50 [4]: 80.5 nM

SMILES: CCC(=O)Nc1cc(Nc2nccc(-c3c[nH]c4c(CCO)cccc34)n2)c(OC)cc1F
- IC50 [1]: 208 nM
- IC50 [2]: > 1000 nM
- IC50 [3]: > 1000 nM
- IC50 [4]: 663 nM

The remaining molecules from weak to strong by IC50 [1], led by results:

- IC50 [1]: 169 nM
- IC50 [2]: > 1000 nM
- IC50 [3]: 638 nM
- IC50 [4]: 73 nM
SMILES: CCC(=O)Nc1cc(Nc2nccc(-c3cn(CCCO)c4ccccc34)n2)c(OC)cc1N(C)CCN(C)C

- inhibition [6]: Dose-dependent effect
- IC50 [1]: 157 nM
- IC50 (BaF3 [10]): 8510 nM
- IC50 [2]: > 1000 nM
- IC50 (A-431): 20500 nM
- IC50 (NCI-H1975): 16200 nM
- inhibition [20]: Active
- IC50 [3]: 218 nM
- inhibition [27]: Dose-dependent effect
- IC50 [4]: 15.3 nM
SMILES: COc1cc(N(C)CCN(C)C)ccc1Nc1nccc(-c2cn(CCCO)c3ccccc23)n1
- Activity (BaF3 [5]): 53.37%
- Activity (BaF3 [7]): 26.61%
- Activity (BaF3 [8]): 10.02%
- Activity (BaF3 [9]): Dose-dependent effect
- Activity (BaF3 [11]): 14.53%
- Activity (BaF3 [12]): 37.81%
- Activity (BaF3 [13]): 23.81%
- Activity (BaF3 [14]): 10.25%
- Activity (BaF3 [15]): Dose-dependent effect
- Ratio IC50 [16]: 1.27
- Activity (BaF3 [17]): 48%
- Activity (BaF3 [18]): 17%
- Activity (BaF3 [19]): 10.52%
- Activity (BaF3 [21]): 80.07%
- Activity (BaF3 [22]): 51.94%
- Ratio IC50 [23]: 2.41
- Activity (BaF3 [24]): 0.4%
- Activity (BaF3 [25]): 0.42%
- Activity (BaF3 [26]): 74.01%
- Activity (BaF3 [28]): 60.89%
- Activity (BaF3 [29]): 0.19%
- Activity (BaF3 [30]): 24.18%
- Activity (BaF3 [31]): 2.74%
- Activity (BaF3 [32]): 40.51%
- Activity (BaF3 [33]): 1.76%

- IC50 [1]: 142 nM
- IC50 [2]: > 1000 nM
- IC50 [3]: 332 nM
- IC50 [4]: 40.4 nM
SMILES: CCC(=O)Nc1cc(Nc2nccc(-c3cn(CCCO)c4ccc(F)cc34)n2)c(OC)cc1F

- IC50 [1]: 127 nM
- IC50 [2]: > 1000 nM
- IC50 [3]: 422 nM
- IC50 [4]: 72.5 nM
SMILES: CCC(=O)Nc1cc(Nc2nccc(-c3cn(CCCO)c4ccccc34)n2)c(OC)cc1F

- IC50 [1]: 2.2 nM
- IC50 [2]: 283 nM
- IC50 [3]: > 1000 nM
- IC50 [4]: 17.9 nM
SMILES: C=CC(=O)Nc1cc(Nc2nccc(-c3cn(CCCO)c4ccccc34)n2)c(OC)cc1F
